PubChem BioAssay AID248 (DTP/NCI, 2004)
Inconclusive results and toxic doses are left out.

System: L1210 leukemia ip in BDF1 mice, survival T/C
Experiment: NCI In Vivo Anticancer Drug Screen. Data for tumor model L1210 Leukemia (intraperitoneal) in B6D2F1 (BDF1) mice
Details: endpoint: mean survival time, higher = longer survival
Outline: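 Read-out is survival time, reported as the treated-group measurement over the vehicle-control measurement.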

[1] = dose: 100.0 mg/kg/injection, schedule: Q01DX001 (ip), vehicle: carboxymethylcellulose (CMC)
[2] = dose: 200.0 mg/kg/injection, schedule: Q01DX001 (ip), vehicle: carboxymethylcellulose (CMC)
[3] = dose: 400.0 mg/kg/injection, schedule: Q01DX001 (ip), vehicle: carboxymethylcellulose (CMC)
[4] = dose: 100.0 mg/kg/injection, schedule: Q04DX003 (ip), vehicle: Klucel (hydroxypropylcellulose) (HPC)
[5] = dose: 200.0 mg/kg/injection, schedule: Q04DX003 (ip), vehicle: Klucel (hydroxypropylcellulose) (HPC)
[6] = dose: 100.0 mg/kg/injection, schedule: Q01DX009 (ip), vehicle: saline with Tween-80
[7] = dose: 200.0 mg/kg/injection, schedule: Q01DX009 (ip), vehicle: saline with Tween-80

## N=C(N)Sc1cc(O)ccc1O
dose: 50.0 mg/kg/injection, schedule: Q01DX009 (ip), vehicle: saline
  T/C: 94 % of control
dose: 100.0 mg/kg/injection, schedule: Q01DX009 (ip), vehicle: saline
  T/C: 93 % of control
dose: 100.0 mg/kg/injection, schedule: Q04DX003 (ip), vehicle: alcohol
  T/C: 102 % of control
dose: 200.0 mg/kg/injection, schedule: Q01DX009 (ip), vehicle: saline
  T/C: 96 % of control
dose: 200.0 mg/kg/injection, schedule: Q04DX003 (ip), vehicle: alcohol
  T/C: 104 % of control

## N#CCCCc1ccc(C(=O)O)cc1
[1]
  T/C: 95 % of control
[2]
  T/C: 100 % of control
[3]
  T/C: 97 % of control

## O=C(O)CCc1c[nH]c2ccc(N(CCCl)CCCl)cc12
dose: 0.7 mg/kg/injection, schedule: Q01DX Z (ip), vehicle: carboxymethylcellulose (CMC)
  T/C: 114 % of control
dose: 1.5 mg/kg/injection, schedule: Q01DX Z (ip), vehicle: carboxymethylcellulose (CMC)
  T/C: 116 % of control
dose: 1.87 mg/kg/injection, schedule: Q01DX001 (ip), vehicle: carboxymethylcellulose (CMC)
  T/C: 121 % of control
dose: 3.75 mg/kg/injection, schedule: Q01DX001 (oral), vehicle: carboxymethylcellulose (CMC)
  T/C: 119 % of control
dose: 7.5 mg/kg/injection, schedule: Q01DX001 (ip), vehicle: carboxymethylcellulose (CMC)
  T/C: 173 % of control
dose: 15.0 mg/kg/injection, schedule: Q01DX001 (oral), vehicle: carboxymethylcellulose (CMC)
  T/C: 103 % of control

## Nc1nc(SN=Nc2ccc(S(=O)(=O)O)cc2)c2[nH]cnc2n1
dose: 11.0 mg/kg/injection, schedule: Q01DX Z (ip), vehicle: alkali diluted with saline
  T/C: 110 % of control
dose: 17.0 mg/kg/injection, schedule: Q01DX Z (ip), vehicle: alkali diluted with saline
  T/C: 120 % of control
dose: 25.0 mg/kg/injection, schedule: Q01DX Z (ip), vehicle: alkali diluted with saline
  T/C: 112 % of control
dose: 38.0 mg/kg/injection, schedule: Q01DX Z (ip), vehicle: alkali diluted with saline
  T/C: 104 % of control

## C1CN2CCN1CC2
dose: 37.5 mg/kg/injection, schedule: Q01DX009 (ip), vehicle: Klucel (hydroxypropylcellulose) (HPC)
  T/C: 91 % of control
dose: 75.0 mg/kg/injection, schedule: Q01DX009 (ip), vehicle: Klucel (hydroxypropylcellulose) (HPC)
  T/C: 91 % of control
dose: 150.0 mg/kg/injection, schedule: Q01DX009 (ip), vehicle: Klucel (hydroxypropylcellulose) (HPC)
  T/C: 89 % of control
dose: 300.0 mg/kg/injection, schedule: Q01DX009 (ip), vehicle: Klucel (hydroxypropylcellulose) (HPC)
  T/C: 94 % of control

## O=c1ccc2c(COc3ccc(Cl)cc3Cl)c3ccc(O)cc3oc-2c1
[4]
  T/C: 99 % of control
[5]
  T/C: 99 % of control

## CN1C(=O)N(C)C2(CCCC2)C1=O
[1]
  T/C: 107 % of control
[2]
  T/C: 104 % of control
[3]
  T/C: 104 % of control

## CC(=O)NN(c1ccc([N+](=O)[O-])cc1)c1ccc([N+](=O)[O-])cc1
dose: 50.0 mg/kg/injection, schedule: Q01DX009 (ip), vehicle: Klucel (hydroxypropylcellulose) (HPC)
  T/C: 97 % of control
dose: 100.0 mg/kg/injection, schedule: Q01DX009 (ip), vehicle: Klucel (hydroxypropylcellulose) (HPC)
  T/C: 90 % of control
[4]
  T/C: 93 % of control
[5]
  T/C: 95 % of control

## CC1(C)OC2COC(c3[nH]nc(C(N)=O)c3C(=O)N=[N+]=[N-])C2O1 (configuration not stated)
dose: 100.0 mg/kg/injection, schedule: Q01DX005 (ip), vehicle: saline
  T/C: 101 % of control
dose: 200.0 mg/kg/injection, schedule: Q01DX005 (ip), vehicle: saline
  T/C: 101 % of control

## O=C(O)/C=C(\Cl)CC(=O)O
dose: 100.0 mg/kg/injection, schedule: Q01DX001 (ip), vehicle: saline
  T/C: 102 % of control
dose: 200.0 mg/kg/injection, schedule: Q01DX001 (ip), vehicle: saline
  T/C: 96 % of control

## Nc1ccc(S(=O)(=O)F)cc1N
dose: 100.0 mg/kg/injection, schedule: Q01DX001 (ip), vehicle: acetone
  T/C: 101 % of control
dose: 100.0 mg/kg/injection, schedule: Q01DX009 (ip), vehicle: acetone
  T/C: 96 % of control
dose: 200.0 mg/kg/injection, schedule: Q01DX001 (ip), vehicle: acetone
  T/C: 101 % of control
dose: 200.0 mg/kg/injection, schedule: Q01DX009 (ip), vehicle: acetone
  T/C: 93 % of control
dose: 400.0 mg/kg/injection, schedule: Q01DX001 (ip), vehicle: acetone
  T/C: 103 % of control

## COc1ccc(CCN=C(C)C2C3CC4CC(C3)CC2C4)cc1OC (configuration not stated)
dose: 100.0 mg/kg/injection, schedule: Q04DX003 (ip), vehicle: saline
  T/C: 90 % of control
dose: 200.0 mg/kg/injection, schedule: Q04DX003 (ip), vehicle: saline
  T/C: 97 % of control
dose: 400.0 mg/kg/injection, schedule: Q04DX003 (ip), vehicle: saline
  T/C: 90 % of control

## CN1CCCCC1C[CH2][Sn]([c]1ccccc1)([c]1ccccc1)[c]1ccccc1 (configuration not stated)
dose: 3.12 mg/kg/injection, schedule: Q01DX009 (ip), vehicle: Klucel (hydroxypropylcellulose) (HPC)
  T/C: 90 % of control
dose: 6.25 mg/kg/injection, schedule: Q01DX009 (ip), vehicle: Klucel (hydroxypropylcellulose) (HPC)
  T/C: 90 % of control
dose: 12.5 mg/kg/injection, schedule: Q01DX009 (ip), vehicle: Klucel (hydroxypropylcellulose) (HPC)
  T/C: 92 % of control
dose: 12.5 mg/kg/injection, schedule: Q04DX002 (ip), vehicle: Klucel (hydroxypropylcellulose) (HPC)
  T/C: 93 % of control
dose: 25.0 mg/kg/injection, schedule: Q04DX002 (ip), vehicle: Klucel (hydroxypropylcellulose) (HPC)
  T/C: 96 % of control

## COC1OC(CCl)C(OC(C)=O)C(OC(C)=O)C1OS(C)(=O)=O (configuration not stated)
dose: 100.0 mg/kg/injection, schedule: Q04DX002 (ip), vehicle: Klucel (hydroxypropylcellulose) (HPC)
  T/C: 91 % of control
dose: 200.0 mg/kg/injection, schedule: Q04DX002 (ip), vehicle: Klucel (hydroxypropylcellulose) (HPC)
  T/C: 91 % of control
dose: 400.0 mg/kg/injection, schedule: Q04DX002 (ip), vehicle: Klucel (hydroxypropylcellulose) (HPC)
  T/C: 97 % of control

## NC(=S)N/N=C/c1cc(Br)ccc1O
[1]
  T/C: 100 % of control
[2]
  T/C: 100 % of control
[3]
  T/C: 105 % of control

## COc1ccc(C(=Nc2ccccc2)C(=Nc2ccccc2)c2ccc(OC)cc2)cc1
dose: 100.0 mg/kg/injection, schedule: Q04DX003 (ip), vehicle: saline with Tween-80
  T/C: 88 % of control
dose: 200.0 mg/kg/injection, schedule: Q04DX003 (ip), vehicle: saline with Tween-80
  T/C: 89 % of control
dose: 400.0 mg/kg/injection, schedule: Q04DX003 (ip), vehicle: saline with Tween-80
  T/C: 91 % of control

## CC(=O)OC1CC2C=CC1C2 (configuration not stated) (tested in a mixture with another compound)
dose: 50.0 mg/kg/injection, schedule: Q01DX009 (ip), vehicle: saline with Tween-80
  T/C: 89 % of control
[6]
  T/C: 89 % of control
[7]
  T/C: 92 % of control

## ClCCCCCCCCCCc1ccccc1
dose: 100.0 mg/kg/injection, schedule: Q01DX009 (ip), vehicle: saline sonified
  T/C: 91 % of control
dose: 100.0 mg/kg/injection, schedule: Q04DX003 (ip), vehicle: saline sonified
  T/C: 96 % of control
dose: 200.0 mg/kg/injection, schedule: Q01DX009 (ip), vehicle: saline sonified
  T/C: 93 % of control
dose: 200.0 mg/kg/injection, schedule: Q04DX003 (ip), vehicle: saline sonified
  T/C: 102 % of control
dose: 400.0 mg/kg/injection, schedule: Q01DX009 (ip), vehicle: saline sonified
  T/C: 89 % of control
dose: 400.0 mg/kg/injection, schedule: Q04DX003 (ip), vehicle: saline sonified
  T/C: 98 % of control

## CC(=O)OC1CCC2(C)C3CCC4(C)C(O)CCC4C3CC(O)C2(O)C1 (configuration not stated)
[6]
  T/C: 110 % of control
[7]
  T/C: 97 % of control
dose: 400.0 mg/kg/injection, schedule: Q01DX009 (ip), vehicle: saline with Tween-80
  T/C: 94 % of control

## CCOC(=O)CCC(NC(=O)c1ccc(NCc2nnc3nc(N)nc(SCc4ccccc4)c3n2)cc1)C(=O)OCC (configuration not stated)
dose: 100.0 mg/kg/injection, schedule: Q01DX001 (ip), vehicle: saline with Tween-80
  T/C: 103 % of control
dose: 200.0 mg/kg/injection, schedule: Q01DX001 (ip), vehicle: saline with Tween-80
  T/C: 100 % of control
dose: 400.0 mg/kg/injection, schedule: Q01DX001 (ip), vehicle: saline with Tween-80
  T/C: 105 % of control

## COc1cc(C=Nc2ccc(-c3csc(COc4ccccc4)n3)c(Cl)c2)ccc1N(CCCl)CCCl
dose: 5.0 mg/kg/injection, schedule: Q01DX015 (ip), vehicle: carboxymethylcellulose (CMC)
  T/C: 111 % of control
dose: 10.0 mg/kg/injection, schedule: Q01DX015 (ip), vehicle: carboxymethylcellulose (CMC)
  T/C: 113 % of control
dose: 20.0 mg/kg/injection, schedule: Q01DX015 (ip), vehicle: carboxymethylcellulose (CMC)
  T/C: 104 % of control
dose: 44.0 mg/kg/injection, schedule: Q01DX015 (ip), vehicle: carboxymethylcellulose (CMC)
  T/C: 97 % of control
dose: 200.0 mg/kg/injection, schedule: Q01DX001 (sc), vehicle: carboxymethylcellulose (CMC)
  T/C: 118 % of control
